Data reported in patent US20120029045A1, “METHOD FOR TREATING PORT WINE STAINS” (SHANGHAI FUDAN-ZHANGJIANG BIO-PHARMACEUTICAL CO., LTD., priority 2010, published 2012).

Assay: PDT for PWS, adverse effects and crust levels
Type: in vivo, human
Procedure: A solution of 1 ml saline was injected in the superficial vein (e.g. median cubital vein) of patients to ensure no liquid leaked into tissues adjacent to the blood vessels into which the injection was made. At the same site, HMME was injected intravenously for 20 minutes with a constant flow rate by using an infusion pump. The doses applied were 2.5 mg/kg body weight or 5.0 mg/kg body weight. Next, 2-4 ml of saline solution was again injected to prevent the drugs from aggregating locally. Irradiation with KTP532 laser was then applied to the patient's lesion site 0-10 minutes after the start of injection, for a total duration of irradiation of either 20 minutes (denoted as the 20 min group), or 30 minutes (denoted as the 30 minute group). […] When irradiation was started immediately after the start of injection, the overlap between the injection and irradiation was about 20 minutes, when irradiation started 5 minutes after the start of injection, the overlap between drug injection and light irradiation was approximately 15 minutes, and when irradiation was started 10 minutes after the start of injection, the overlap was about 10 minutes. The therapeutic results were measured 8 weeks after the treatment. The most common adverse temporary effects included swelling, burning, redness, pain, blister and crust formation in PDT for PWS and these symptoms occurred in almost every case. Scar or crust thickness was measured as thickening of crusts. The crust levels served as an assessment index for scars.

[1] = Part A, 5.0 mg/kg, patients treated for 20 min
[2] = Part B, 2.5 mg/kg group, irradiated 20 min
[3] = Part B, 5.0 mg/kg group, irradiated 20 min
[4] = Part B, 2.5 and 5.0 mg/kg, irradiated 20 min

hematoporphyrin monomethyl ether [HMME]
Blister, Mild (cases) (5.0 mg/kg, 20 min group): 0
Blister, Moderate (cases) (5.0 mg/kg, 20 min group): 0
Blister, Rate (%) (5.0 mg/kg, 20 min group): 0.0%
Blister, total (cases) (5.0 mg/kg, 20 min group): 10
Burning, Mild (cases) (5.0 mg/kg, 20 min group): 0
Burning, Moderate (cases) (5.0 mg/kg, 20 min group): 0
Burning, Rate (%) (5.0 mg/kg, 20 min group): 0.0%
Burning, total (cases) (5.0 mg/kg, 20 min group): 0
Pain, Mild (cases) (5.0 mg/kg, 20 min group): 1
Pain, Moderate (cases) (5.0 mg/kg, 20 min group): 9
Pain, Rate (%) (5.0 mg/kg, 20 min group): 50.0%
Pain, total (cases) (5.0 mg/kg, 20 min group): 10
Redness, Mild (cases) (5.0 mg/kg, 20 min group): 0
Redness, Moderate (cases) (5.0 mg/kg, 20 min group): 0
Redness, Rate (%) (5.0 mg/kg, 20 min group): 0.0%
Redness, total (cases) (5.0 mg/kg, 20 min group): 0
Swelling, Mild (cases) (5.0 mg/kg, 20 min group): 9
Swelling, Moderate (cases) (5.0 mg/kg, 20 min group): 9
Swelling, Rate (%) (5.0 mg/kg, 20 min group): 90.0%
Swelling, total (cases) (5.0 mg/kg, 20 min group): 18
crust level Moderate thick and fractional, (%) (5.0 mg/kg, 20 min group): (5.0) %
crust level Moderate thick and full, (%) (5.0 mg/kg, 20 min group): (0.0) %
crust level None, (%) (5.0 mg/kg, 20 min group): (25.0) %
crust level Thin and fractional, (%) (5.0 mg/kg, 20 min group): (50.0) %
crust level Thin and full, (%) (5.0 mg/kg, 20 min group): (20.0) %
Blister, Mild (cases) (5.0 mg/kg, 30 min group): 2
Blister, Moderate (cases) (5.0 mg/kg, 30 min group): 0
Blister, Rate (%) (5.0 mg/kg, 30 min group): 10.0%
Blister, total (cases) (5.0 mg/kg, 30 min group): 2
Burning, Mild (cases) (5.0 mg/kg, 30 min group): 0
Burning, Moderate (cases) (5.0 mg/kg, 30 min group): 1
Burning, Rate (%) (5.0 mg/kg, 30 min group): 5.0%
Burning, total (cases) (5.0 mg/kg, 30 min group): 1
Pain, Mild (cases) (5.0 mg/kg, 30 min group): 3
Pain, Moderate (cases) (5.0 mg/kg, 30 min group): 12
Pain, Rate (%) (5.0 mg/kg, 30 min group): 75.0%
Pain, total (cases) (5.0 mg/kg, 30 min group): 15
Redness, Mild (cases) (5.0 mg/kg, 30 min group): 0
Redness, Moderate (cases) (5.0 mg/kg, 30 min group): 2
Redness, Rate (%) (5.0 mg/kg, 30 min group): 10.0%
Redness, total (cases) (5.0 mg/kg, 30 min group): 2
Swelling, Mild (cases) (5.0 mg/kg, 30 min group): 6
Swelling, Moderate (cases) (5.0 mg/kg, 30 min group): 12
Swelling, Rate (%) (5.0 mg/kg, 30 min group): 90.0%
Swelling, total (cases) (5.0 mg/kg, 30 min group): 18
crust level Moderate thick and fractional, (%) (5.0 mg/kg, 30 min group): (5.0) %
crust level Moderate thick and full, (%) (5.0 mg/kg, 30 min group): (15.0) %
crust level None, (%) (5.0 mg/kg, 30 min group): (15.0) %
crust level Thin and fractional, (%) (5.0 mg/kg, 30 min group): (25.0) %
crust level Thin and full, (%) (5.0 mg/kg, 30 min group): (40.0) %
severity of adverse effects (Part A, 5.0 mg/kg, irradiation 20 or 30 min): mild or moderate
scars [1]: no scars were present
serious-thick crusts [1]: No serious-thick crusts occurred
Crust Total, Rate (%) [2]: 34.7%
Crust level Mild, Rate (%) [2]: 34.7%
Crust level Moderate, Rate (%) [2]: 0.0%
Crust level Serious, Rate (%) [2]: 0.0%
Crust Total, Rate (%) [3]: 88.01%
Crust level Mild, Rate (%) [3]: 60.0%
Crust level Moderate, Rate (%) [3]: 28.0%
Crust level Serious, Rate (%) [3]: 0.0%
scars [4]: no scars were formed
serious-thick crusts [4]: No serious-thick crusts occurred
